Entries after “also recorded” stand apart in the source; their conditions may differ.
Columns and labels:
Plasmodium falciparum [1] = experiment: Inhibition of Plasmodium falciparum growth (35S-methionine incorporation) and effect of adding iron; format: cell-based; conditions: for effect of FeCl3 on inhibition: 2.10^-3 M FeCl3 added immediately after the hydroxamate; for effect of adding iron on the antiplasmodial action: iron added to the parasite culture; for antiplasmodial activity / parasite growth inhibition: in vitro, no iron added
Method: FIG. 3b: the pool of hydroxamate (10 ml to 15 ml) collected by the ion exchange chromatography was placed in a Sephadex G50 column (25×2 cm) and eluted with 100 mM of phosphate buffer (pH 7.0), at a flow rate of 30 ml/h. Fractions (2 ml to 3 ml) were collected and the hydroxamate measured (A526 nm absorbance -- --), and the following were also measured: inhibition of Plasmodium falciparum growth (--.smallcircle.--) and A220 nm absorbance (--Δ--).
0.2 μm of the filtered fractions were placed in a synchronized culture of Plasmodium falciparum at a final concentration of 2.5%, as described in Table I. 100 μCi/ml of methionine marked with sulfur 35 (Amersham) were added on day 1 (rings). The parasite culture was collected on day 2 (schizonts) and the incorporation of ^35 S-methionine was measured in 10% TCA.

Plasmodium falciparum [2] = experiment: Quantitative in vitro growth inhibition of Plasmodium falciparum; format: cell-based; conditions: 2.5 μg/ml (about 10^-5 M)
Plasmodium chaubaudi = experiment: Parasite multiplication and survival of mice infected with Plasmodium chaubaudi; format: in vivo
P. falciparum = experiment: Parasite multiplication and survival of mice infected with P. falciparum; format: in vivo; conditions: FIG. 5
[3] = system: red blood cells infected with Plasmodium falciparum; experiment: Penetration and concentration in parasitized red blood cells; format: cell-based, human; conditions: for penetration into parasitized red blood cells: schizont stage, aerobactin 7 μg/ml, desferioxamine 50 μg/ml
Text: (§1) This test studies the incorporation of […] in normal red blood cells and in red blood cells infected with Plasmodium falciparum.
(§2) Tritium-marked aerobactin (0.2 mCi/mmol to 0.3 mCi/mmol) was purified as described above (FIG. 3) from a supernatant of strains of K5 1101 Klebsiella pneumoniae culture cultivated in an RPMI* medium containing 100 μCi/ml of tritium-marked lysine.
Desferioxamine marked with iodine 125 (50 mCi/mmol) was obtained by the iodine-producing technique.
(§3) The tritium-containing aerobactin (7 μg/ml) and the ^125 I containing desferioxamine (50 μg/ml) were introduced into synchronized cultures of Plasmodium falciparum (schizont stage, 20% parasitemia, hematocrit: 5%) and in a suspension of red blood cells (5% hematocrit). The cultures were incubated at 37° C. and 50 μl samples were taken at different times.
(§4) For each sample, the following were measured:
(§5) 1. The cpm in the culture supernatant;
2. The cpm in the supernatant of red blood cells lysis (the red blood cells were lysed in 40 vol. of RPMI diluted ten times and the free parasites were precipitated using a centrifuge rotating at 5,000 rpm for 5 min and were washed in RPMI); and
3. The cpm associated with free parasites.
The parasites are subsequently lysed in order to prepare soluble and membrane fractions as described previously (Braun-Breton et al, Molecular Biochem. Parasitol., 1986, 20, pp. 33-43).

normal red blood cells = experiment: Concentration in healthy red blood cells; format: cell-based, human; conditions: tritium-marked, 7 μg/ml, 37° C.
Method: as §1, §2, §3, §4, §5
2. The cpm in the supernatant of red blood cells lysis (the red blood cells were lysed in 40 vol. of RPMI diluted ten times and the free parasites were precipitated using a centrifuge rotating at 5,000 rpm for 5 min and were washed in RPMI); and […]

mice = experiment: Toxicity in mice; format: in vivo; conditions: injection
fibroblasts = experiment: Toxicity on a culture of fibroblasts; format: cell-based; conditions: purified
[4] = system: schizonts of Plasmodium falciparum; experiment: Kinetics of inhibition of 35S-methionine incorporation in schizonts; format: cell-based; conditions: for incorporation of 35S-methionine in the proteins of schizonts: FIG. 7, aerobactin 50 μg/ml, desferioxamine 500 μg/ml
Method: Time in minutes is plotted along the X axis and the percentage of inhibited schizonts is plotted up the Y axis.
The schizonts of Plasmodium falciparum were concentrated from a culture, they were washed and cultured at 37° C. for one hour. Solutions of hydroxamate (-- -- 50 μg/ml aerobactin and --.smallcircle.-- 500 μg/ml of desferioxamine) were added to the schizonts. Incubation at 37° C. continued and samples were taken at various different times. The hydroxamate was removed by washing the cells, and the cells were again cultured in the presence of 250 μCi/ml ^35 S-methionine for one hour.
The cultures were collected and the degree to which ^35 S-methionine had been incorporated was measured.

L fibroblasts = experiment: 35S-methionine incorporation in L fibroblasts; format: cell-based; conditions: 5 hours
monkeys = conditions: monkey, in vivo
[5] = Williams et al 1986; cited from earlier work
bacteria = conditions: Williams et al 1986; cited from earlier work
[6] = cited from earlier work

SMILES: CC(=O)N(O)CCCCC(NC(=O)CC(O)(CC(=O)NC(CCCCN(O)C(C)=O)C(=O)O)C(=O)O)C(=O)O (stereo not drawn) [aerobactin]
- effect of FeCl3 on inhibition (Plasmodium falciparum [1]): little effect on inhibition
- plasmocidin activity after purification (Plasmodium falciparum [1]; Dowex-1 and Sephadex G50 purified, FIG. 3): plasmocidin activity subsists
- effect of adding iron on the antiplasmodial action (Plasmodium falciparum [1]): does not reverse the plasmocidin action
- inhibition of growth of Plasmodium falciparum (Plasmodium falciparum [2]): 100%
- survival of mice (Plasmodium chaubaudi; 7.5 μg): do not survive
- parasite multiplication and survival of mice (Plasmodium chaubaudi; purified, intravenous, 15 μg/mouse): causes parasite multiplication to be slowed down, allowing the mice to survive
- parasite multiplication and survival of mice (P. falciparum) (P. falciparum): The same effect has been observed
- location of intraparasitic radioactivity ([3]; lysed parasites, soluble and membrane fractions): recovered in the soluble fraction of the parasites
- penetration into parasitized red blood cells ([3]; 37° C.): penetrates quickly into parasitized red blood cells
- detection in the cytoplasm of the red blood cells ([3]; supernatant of red blood cell lysis): not detected
- concentration in the parasitized cell ([3]; tritium-marked, 7 μg/ml, 37° C.): at least 200 times
- concentration in healthy red blood cells (normal red blood cells): not concentrated in healthy red blood cells
- toxicity for mice (mice): not toxic for mice; also recorded: no toxic effect has been observed
- toxic effect on fibroblasts in culture (fibroblasts): no toxic effect on the cells
- incorporation of 35S-methionine in the proteins of schizonts [4]: quickly suppresses the incorporation
- inhibition at 50 µg/mL ([4]; Plasmodium falciparum, 2 h, 50 μg/ml, within two hours, 37° C., read-out: schizonts with inhibited incorporation of methionine): 90%
- inhibition of methionine incorporation in L fibroblasts (L fibroblasts): Such activity was not found
- toxic effect in monkeys (monkeys): no toxic effect has been observed
- affinity for ferric derivatives relative to enterochelin [5]: lower affinity for ferric derivatives than enterochelin
- concentration stimulating bacterial growth relative to enterochelin (bacteria): 500 times smaller

SMILES: CCN(CC)CCCC(C)Nc1ccnc2cc(Cl)ccc12 (stereo not drawn) [chloroquine]
- toxicity (prior art) [6]: do not present significant toxicity

SMILES: CC(=O)N(O)CCCCCNC(=O)CCC(=O)N(O)CCCCCNC(=O)CCC(=O)N(O)CCCCCN [Desferioxamine]
- effect of FeCl3 on inhibition (Plasmodium falciparum [1]): completely reverses the inhibition
- antiplasmodial activity / parasite growth inhibition (Plasmodium falciparum [1]): inhibits parasite growth
- effect of adding iron on the antiplasmodial action (Plasmodium falciparum [1]): totally reversed
- penetration into parasitized red blood cells ([3]; 37° C.): does not penetrate into parasitized red blood cells
- incorporation of 35S-methionine in the proteins of schizonts [4]: no action on the incorporation of methionine

SMILES: Cl.NCCCC[C@H](N)C(=O)NO [L-Lysine hydroxamate hydrochloride]
- antiplasmodial activity / parasite growth inhibition (Plasmodium falciparum [1]): does not exhibit antiplasmodial activity

— patent publication US5192807A, “Siderophores as antiparasitic agents” (priority 1987, dated 1993)
